The supplement of paper PMC10307832

Legend:
Experiment in all cases: relative viability (nuclei count vs DMSO), 5 days (fraction); higher = more cells survive
Idelalisib + Foretinib = compound: CC[C@H](Nc1ncnc2[nH]cnc12)c1nc2cccc(F)c2c(=O)n1-c1ccccc1 [Idelalisib] + COc1cc2c(Oc3ccc(NC(=O)C4(C(=O)Nc5ccc(F)cc5)CC4)cc3F)ccnc2cc1OCCCN1CCOCC1 [Foretinib] (partner 0.25 µM)
Outline: (§1)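 Dosing by pin tool came one day after lung cancer cell lines were seeded in 1536-well plates, using either one drug or a fixed anchor-drug dose plus five library-drug doses (not always all listed) in √10 steps. After 5 days, nuclei were counted on 4× images. Relative viability is treated-well nuclei count divided by vehicle-well nuclei count, and values are medians of duplicate plates.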

Pemetrexed + Lapatinib = compound: Nc1nc2[nH]cc(CCc3ccc(C(=O)N[C@@H](CCC(=O)O)C(=O)O)cc3)c2c(=O)[nH]1 [Pemetrexed] + CS(=O)(=O)CCNCc1ccc(-c2ccc3ncnc(Nc4ccc(OCc5cccc(F)c5)c(Cl)c4)c3c2)o1 [Lapatinib] (partner 2 µM)
Outline: as §1

Pemetrexed + Crizotinib = compound: Nc1nc2[nH]cc(CCc3ccc(C(=O)N[C@@H](CCC(=O)O)C(=O)O)cc3)c2c(=O)[nH]1 [Pemetrexed] + C[C@@H](Oc1cc(-c2cnn(C3CCNCC3)c2)cnc1N)c1c(Cl)ccc(F)c1Cl [Crizotinib] (partner 1 µM)
Outline: as §1

Idelalisib + Alpelisib = compound: CC[C@H](Nc1ncnc2[nH]cnc12)c1nc2cccc(F)c2c(=O)n1-c1ccccc1 [Idelalisib] + Cc1nc(NC(=O)N2CCC[C@H]2C(N)=O)sc1-c1ccnc(C(C)(C)C(F)(F)F)c1 [Alpelisib] (partner 2 µM)
Outline: as §1

## UMC-11
Idelalisib + Foretinib; first compound 0.04 µM
  relative viability: 0.957
Idelalisib + Foretinib; first compound 0.1265 µM
  relative viability: 1.07
Idelalisib + Foretinib; first compound 0.4 µM
  relative viability: 0.988
Idelalisib + Foretinib; first compound 1.265 µM
  relative viability: 1.03
Idelalisib + Foretinib; first compound 4 µM
  relative viability: 1.09
Pemetrexed + Lapatinib; first compound 0.002 µM
  relative viability: 1.24
Pemetrexed + Lapatinib; first compound 0.006325 µM
  relative viability: 0.952
Pemetrexed + Lapatinib; first compound 0.02 µM
  relative viability: 1.11
Pemetrexed + Lapatinib; first compound 0.06325 µM
  relative viability: 1.05
Pemetrexed + Lapatinib; first compound 0.2 µM
  relative viability: 0.746
Pemetrexed + Crizotinib; first compound 0.002 µM
  relative viability: 0.603
Pemetrexed + Crizotinib; first compound 0.006325 µM
  relative viability: 0.635
Pemetrexed + Crizotinib; first compound 0.02 µM
  relative viability: 0.666
Pemetrexed + Crizotinib; first compound 0.06325 µM
  relative viability: 0.715
Pemetrexed + Crizotinib; first compound 0.2 µM
  relative viability: 0.566
Idelalisib + Alpelisib; first compound 0.04 µM
  relative viability: 1.15
Idelalisib + Alpelisib; first compound 0.1265 µM
  relative viability: 0.999
Idelalisib + Alpelisib; first compound 0.4 µM
  relative viability: 0.966
Idelalisib + Alpelisib; first compound 1.265 µM
  relative viability: 0.987
Idelalisib + Alpelisib; first compound 4 µM
  relative viability: 1.05
